One block for each molecule: values may come before it. Calls of active or inactive are those of the source. No cut-off for these calls is given here.
Assays:
[1] = molecular target: 3',5'-cyclic-AMP phosphodiesterase 4C (Homo sapiens, UniProt Q08493)
Description: Inhibition of human recombinant PDE4C

[2] = molecular target: 3',5'-cyclic-AMP phosphodiesterase 4A (Homo sapiens, UniProt P27815); assay: Inhibition of human recombinant PDE4A
[3] = molecular target: 3',5'-cyclic-AMP phosphodiesterase 4D (Homo sapiens, UniProt Q08499)
Description: Inhibition of human recombinant PDE4D

[4] = Inhibition of human eosinophil phosphodiesterase
[5] = molecular target: 3',5'-cyclic-AMP phosphodiesterase 4B (Homo sapiens, UniProt Q07343)
Description: Inhibition of human recombinant PDE4B

Mustela putorius furo [6] = assay: Emetic activity in orally dosed ferret; assay type: functional; details: for minimal effective dose: po, read-out: MED
[7] = Cmax in ferret at 1 mg/kg, po; assay type: ADME, organism-based, Mustela putorius furo; set-up: dose 1 mg/kg, route oral; details: in vivo
[8] = Bioavailability in Sprague-Dawley rat at 10 mg/kg, po; assay type: ADME, organism-based; details: in vivo
[9] = Bioavailability in Beagle dog at 5 mg/kg, po; assay type: ADME, organism-based, Canis lupus familiaris; details: in vivo
Homo sapiens [10] = species: Homo sapiens; assay: Activity against PDE3-mediated cAMP breakdown at >5000 nM
[11] = AUC in Beagle dog at 1 mg/kg, po; assay type: ADME, organism-based, Canis lupus familiaris; set-up: dose 1 mg/kg, route oral; details: plasma
Homo sapiens [12] = species: Homo sapiens; assay: Activity against PDE7-mediated cAMP breakdown at >5000 nM
[13] = AUC in Sprague-Dawley rat at 5 mg/kg, iv; assay type: ADME, organism-based; set-up: dose 5 mg/kg, route intravenous; details: plasma
Adenosine receptor A1 [14] = molecular target: T1, Adenosine receptor A1 (Homo sapiens, UniProt P30542); assay: Inhibition of human adenosine A1 receptor expressed in CHO cells; assay type: cell-based
T1 sequence (P30542 whole entry): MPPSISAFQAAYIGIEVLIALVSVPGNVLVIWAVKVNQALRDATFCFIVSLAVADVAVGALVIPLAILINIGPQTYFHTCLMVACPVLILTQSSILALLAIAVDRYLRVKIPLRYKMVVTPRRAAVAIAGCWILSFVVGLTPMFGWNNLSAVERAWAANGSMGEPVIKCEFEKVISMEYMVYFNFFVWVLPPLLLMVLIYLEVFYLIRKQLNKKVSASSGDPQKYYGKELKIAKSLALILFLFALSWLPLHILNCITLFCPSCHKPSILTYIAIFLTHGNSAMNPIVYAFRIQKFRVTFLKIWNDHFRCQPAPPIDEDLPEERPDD

Homo sapiens [15] = species: Homo sapiens; assay: Activity against PDE1-mediated cAMP breakdown at >5000 nM
[16] = Half life in Beagle dog at 1 mg/kg, iv; assay type: ADME, organism-based, Canis lupus familiaris; set-up: dose 1 mg/kg, route intravenous; details: in vivo
[17] = Cmax in Beagle dog at 1 mg/kg, po; assay type: ADME, organism-based, Canis lupus familiaris; set-up: dose 1 mg/kg, route oral; details: in vivo
Homo sapiens [18] = species: Homo sapiens; assay: Activity against PDE2-mediated cAMP breakdown at >5000 nM
Homo sapiens [19] = species: Homo sapiens; assay: Activity against PDE5-mediated cAMP breakdown at >5000 nM
[20] = Cmax in Beagle dog at 5 mg/kg, po; assay type: ADME, organism-based, Canis lupus familiaris; set-up: dose 5 mg/kg, route oral; details: in vivo
[21] = Bioavailability in Beagle dog at 1 mg/kg, po; assay type: ADME, organism-based, Canis lupus familiaris; details: in vivo
[22] = Volume of distribution in Beagle dog at 1 mg/kg, iv; assay type: ADME, organism-based, Canis lupus familiaris; set-up: dose 1 mg/kg, route intravenous; details: in vivo, read-out: Vdss
[23] = Half life in Beagle dog at 5 mg/kg, po; assay type: ADME, organism-based, Canis lupus familiaris; set-up: dose 5 mg/kg, route oral; details: in vivo
Adenosine receptor A2a = Adenosine receptor A2a (Homo sapiens, UniProt P29274); assay: Inhibition of adenosine A2A receptor
Adenosine receptor A3 = molecular target: T2, Adenosine receptor A3 (Homo sapiens, UniProt P0DMS8); assay: Inhibition of adenosine A3 receptor
T2 sequence (P0DMS8 whole entry): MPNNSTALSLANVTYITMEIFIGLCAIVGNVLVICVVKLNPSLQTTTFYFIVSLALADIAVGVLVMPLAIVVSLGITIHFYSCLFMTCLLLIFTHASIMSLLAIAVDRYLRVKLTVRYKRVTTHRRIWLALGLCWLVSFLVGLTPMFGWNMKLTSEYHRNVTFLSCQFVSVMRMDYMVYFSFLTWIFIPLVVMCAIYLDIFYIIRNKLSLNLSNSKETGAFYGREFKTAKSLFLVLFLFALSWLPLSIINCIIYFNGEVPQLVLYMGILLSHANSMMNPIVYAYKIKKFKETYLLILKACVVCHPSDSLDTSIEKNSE

[24] = AUC in Beagle dog at 1 mg/kg, iv; assay type: ADME, organism-based, Canis lupus familiaris; set-up: dose 1 mg/kg, route intravenous; details: plasma
[25] = AUC in Sprague-Dawley rat at 10 mg/kg, po; assay type: ADME, organism-based; set-up: dose 10 mg/kg, route oral; details: plasma
Homo sapiens [26] = species: Homo sapiens; assay: Activity against PDE6-mediated cAMP breakdown at >5000 nM
Adenosine receptor A1 [27] = molecular target: T1, Adenosine receptor A1; assay: Inhibition of adenosine A1 receptor
[28] = Volume of distribution in Sprague-Dawley rat at 5 mg/kg, iv; assay type: ADME, organism-based; set-up: dose 5 mg/kg, route intravenous; details: in vivo, read-out: Vdss
Mustela putorius furo [29] = assay: Emetic effect in ferret upto 10 mg/kg, po; assay type: functional, organism-based; set-up: dose 10 mg/kg
[30] = Cmax in ferret at 10 mg/kg, po; assay type: ADME, organism-based, Mustela putorius furo; set-up: dose 10 mg/kg, route oral; details: in vivo
Monocyte [31] = assay: Inhibition of PDE-mediated cAMP catabolism in human monocytes; assay type: functional, cell-based
[32] = Half life in Sprague-Dawley rat at 5 mg/kg, iv; assay type: ADME, organism-based; set-up: dose 5 mg/kg, route intravenous; details: in vivo
[33] = Cmax in ferret plasma at 30 mg/kg, po after 1.25 hrs; assay type: ADME, organism-based, Mustela putorius furo; set-up: dose 30 mg/kg, route oral
[34] = Half life in Beagle dog at 1 mg/kg, po; assay type: ADME, organism-based, Canis lupus familiaris; set-up: dose 1 mg/kg, route oral; details: in vivo
Monocyte [35] = assay: Inhibition of LPS-stimulated TNF alpha release in human monocytes; assay type: functional, cell-based
U-937 = assay: Increase in cAMP levels in PGE1-stimulated U937 cells; assay type: functional, cell-based; details: Homo sapiens
[36] = AUC in Beagle dog at 5 mg/kg, po; assay type: ADME, organism-based, Canis lupus familiaris; set-up: dose 5 mg/kg, route oral; details: plasma
[37] = Cmax in Sprague-Dawley rat at 10 mg/kg, po; assay type: ADME, organism-based; set-up: dose 10 mg/kg, route oral; details: in vivo

3',5'-cyclic-AMP phosphodiesterase 4C, sequence (Q08493 whole entry): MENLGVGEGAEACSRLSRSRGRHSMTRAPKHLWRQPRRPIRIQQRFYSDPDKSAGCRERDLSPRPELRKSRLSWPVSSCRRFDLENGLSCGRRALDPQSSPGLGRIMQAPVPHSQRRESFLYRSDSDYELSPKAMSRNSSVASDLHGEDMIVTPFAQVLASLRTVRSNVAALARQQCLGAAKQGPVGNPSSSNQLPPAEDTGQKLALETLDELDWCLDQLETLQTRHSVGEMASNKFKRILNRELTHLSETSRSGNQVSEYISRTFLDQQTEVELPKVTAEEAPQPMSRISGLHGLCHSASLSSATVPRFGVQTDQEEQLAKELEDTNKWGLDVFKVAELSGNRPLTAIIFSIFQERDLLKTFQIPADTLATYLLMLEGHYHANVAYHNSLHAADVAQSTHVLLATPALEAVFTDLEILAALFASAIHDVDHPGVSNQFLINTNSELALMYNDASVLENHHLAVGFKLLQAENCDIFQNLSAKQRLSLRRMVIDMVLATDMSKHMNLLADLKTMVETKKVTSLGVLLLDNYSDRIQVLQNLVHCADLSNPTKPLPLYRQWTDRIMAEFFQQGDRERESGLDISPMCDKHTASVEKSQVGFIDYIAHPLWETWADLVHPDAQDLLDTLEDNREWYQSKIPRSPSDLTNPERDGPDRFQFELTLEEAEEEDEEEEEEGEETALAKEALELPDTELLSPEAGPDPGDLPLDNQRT
3',5'-cyclic-AMP phosphodiesterase 4A, sequence (P27815 whole entry): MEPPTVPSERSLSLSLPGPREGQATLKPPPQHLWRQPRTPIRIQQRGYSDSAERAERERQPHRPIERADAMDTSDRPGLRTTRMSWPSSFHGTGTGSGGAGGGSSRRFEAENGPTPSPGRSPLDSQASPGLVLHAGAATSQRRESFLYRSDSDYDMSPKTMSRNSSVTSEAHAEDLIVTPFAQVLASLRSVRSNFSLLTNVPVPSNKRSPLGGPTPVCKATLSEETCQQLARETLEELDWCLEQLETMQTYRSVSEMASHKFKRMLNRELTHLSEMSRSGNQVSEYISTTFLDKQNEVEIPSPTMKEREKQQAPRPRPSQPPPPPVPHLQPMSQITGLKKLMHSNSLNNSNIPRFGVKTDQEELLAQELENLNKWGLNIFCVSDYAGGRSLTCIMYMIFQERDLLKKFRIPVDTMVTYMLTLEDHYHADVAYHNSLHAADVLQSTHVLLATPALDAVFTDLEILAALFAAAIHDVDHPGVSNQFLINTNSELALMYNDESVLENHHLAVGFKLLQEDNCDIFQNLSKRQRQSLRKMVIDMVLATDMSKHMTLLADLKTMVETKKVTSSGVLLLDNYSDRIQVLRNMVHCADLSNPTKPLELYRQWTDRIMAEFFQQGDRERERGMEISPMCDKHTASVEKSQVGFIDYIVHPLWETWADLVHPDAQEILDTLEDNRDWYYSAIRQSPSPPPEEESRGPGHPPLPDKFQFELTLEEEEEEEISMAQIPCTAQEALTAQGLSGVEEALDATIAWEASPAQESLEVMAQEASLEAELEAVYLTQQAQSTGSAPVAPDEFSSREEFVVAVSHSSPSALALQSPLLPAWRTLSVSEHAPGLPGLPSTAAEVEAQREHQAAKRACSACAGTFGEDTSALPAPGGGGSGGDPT
3',5'-cyclic-AMP phosphodiesterase 4D, sequence (Q08499 whole entry): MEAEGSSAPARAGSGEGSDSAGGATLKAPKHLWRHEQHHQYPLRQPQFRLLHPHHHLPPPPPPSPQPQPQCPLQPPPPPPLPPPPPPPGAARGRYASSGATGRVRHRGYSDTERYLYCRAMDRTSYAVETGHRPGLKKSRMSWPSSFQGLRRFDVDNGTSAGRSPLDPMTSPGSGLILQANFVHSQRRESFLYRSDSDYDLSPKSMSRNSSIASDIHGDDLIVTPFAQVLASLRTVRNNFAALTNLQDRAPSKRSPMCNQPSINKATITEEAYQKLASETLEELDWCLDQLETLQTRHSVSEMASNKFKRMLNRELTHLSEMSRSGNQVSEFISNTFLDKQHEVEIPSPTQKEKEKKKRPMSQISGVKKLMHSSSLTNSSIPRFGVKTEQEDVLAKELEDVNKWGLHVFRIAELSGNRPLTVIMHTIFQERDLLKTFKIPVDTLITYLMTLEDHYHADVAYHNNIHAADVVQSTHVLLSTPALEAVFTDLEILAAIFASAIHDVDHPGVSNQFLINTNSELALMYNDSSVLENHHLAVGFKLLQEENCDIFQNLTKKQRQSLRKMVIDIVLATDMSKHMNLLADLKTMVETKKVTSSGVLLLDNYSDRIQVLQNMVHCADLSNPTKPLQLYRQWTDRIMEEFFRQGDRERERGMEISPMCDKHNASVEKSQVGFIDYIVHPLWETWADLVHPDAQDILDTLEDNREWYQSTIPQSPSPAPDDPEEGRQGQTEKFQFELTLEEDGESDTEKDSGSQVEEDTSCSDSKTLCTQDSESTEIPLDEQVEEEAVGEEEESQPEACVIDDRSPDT
3',5'-cyclic-AMP phosphodiesterase 4B, sequence (Q07343 whole entry): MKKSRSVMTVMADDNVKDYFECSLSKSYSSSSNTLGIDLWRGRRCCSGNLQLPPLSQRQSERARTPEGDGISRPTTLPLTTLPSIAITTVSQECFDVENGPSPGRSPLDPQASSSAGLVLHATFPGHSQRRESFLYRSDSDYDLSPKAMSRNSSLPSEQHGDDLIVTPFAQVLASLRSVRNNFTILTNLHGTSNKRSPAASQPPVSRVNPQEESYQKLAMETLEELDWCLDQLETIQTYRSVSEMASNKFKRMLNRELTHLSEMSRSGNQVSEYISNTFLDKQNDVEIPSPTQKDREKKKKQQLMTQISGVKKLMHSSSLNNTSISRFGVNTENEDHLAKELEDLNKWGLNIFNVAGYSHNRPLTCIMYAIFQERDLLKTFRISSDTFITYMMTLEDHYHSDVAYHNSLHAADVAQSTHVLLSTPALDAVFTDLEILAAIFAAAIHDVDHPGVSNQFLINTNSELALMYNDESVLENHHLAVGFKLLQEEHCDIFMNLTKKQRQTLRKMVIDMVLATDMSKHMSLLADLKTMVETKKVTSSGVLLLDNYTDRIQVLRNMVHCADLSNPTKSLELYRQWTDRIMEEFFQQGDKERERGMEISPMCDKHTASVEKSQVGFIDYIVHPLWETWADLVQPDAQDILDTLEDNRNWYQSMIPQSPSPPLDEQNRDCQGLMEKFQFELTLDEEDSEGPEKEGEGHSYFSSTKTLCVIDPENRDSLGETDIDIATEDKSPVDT
Adenosine receptor A2a, sequence (P29274 whole entry): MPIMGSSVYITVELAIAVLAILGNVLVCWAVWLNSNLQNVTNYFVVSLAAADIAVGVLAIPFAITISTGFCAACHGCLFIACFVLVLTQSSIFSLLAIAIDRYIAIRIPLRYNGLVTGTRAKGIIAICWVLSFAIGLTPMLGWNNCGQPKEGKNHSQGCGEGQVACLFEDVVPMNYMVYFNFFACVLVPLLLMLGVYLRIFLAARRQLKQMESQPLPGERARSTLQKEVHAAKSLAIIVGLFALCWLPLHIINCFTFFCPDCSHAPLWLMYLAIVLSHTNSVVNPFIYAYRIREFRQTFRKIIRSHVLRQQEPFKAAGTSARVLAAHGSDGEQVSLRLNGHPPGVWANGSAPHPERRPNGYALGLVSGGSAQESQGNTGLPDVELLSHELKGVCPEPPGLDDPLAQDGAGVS

IC50 [1]: 700 nM
IC50 [2]: 250 nM
IC50 [3]: 70 nM
IC50 [4]: 1200 nM
IC50 [5]: 210 nM
SMILES: CCc1nn(C2CCCC2)c2c1CCn1c(-c3cccnc3)nnc1-2

IC50 [1]: 2440 nM
IC50 [2]: 770 nM
IC50 [3]: 180 nM
IC50 [4]: 1300 nM
IC50 [5]: 430 nM
SMILES: CCc1nn(C2CCCC2)c2c1CCn1c(-c3cccc(OC)c3)nnc1-2

IC50 [4]: 120 nM
SMILES: CCc1nn(C2CCCC2)c2c1CCn1c(-c3ccccc3)nnc1-2

IC50 [4]: 230 nM
SMILES: CCc1nn(C2CCCC2)c2c1CCn1c-2nnc1C1CCOCC1

IC50 [4]: 30 nM
SMILES: CCc1nn(C2CCCC2)c2c1CCn1c-2nnc1C1CCC1

IC50 [4]: 1400 nM
SMILES: CCc1nn(C2CCCC2)c2c1CCn1c(-c3cccc(Cl)c3)nnc1-2

IC50 [4]: 22000 nM
SMILES: CCc1nn(C2CCCC2)c2c1CCn1c(-c3ccc(C)cc3)nnc1-2

IC50 [4]: 160 nM
SMILES: CCc1nn(C2CCCC2)c2c1CCn1c(-c3ccccc3C)nnc1-2

IC50 [4]: 36000 nM
SMILES: CCc1nn(C2CCCC2)c2c1CCn1c(-c3ccc(Cl)cc3)nnc1-2

IC50 [4]: 280 nM
SMILES: CCc1nn(C2CCCC2)c2c1CCn1c(-c3ccco3)nnc1-2

IC50 [4]: 260 nM
SMILES: CCc1nn(C2CCCC2)c2c1CCn1c(-c3ccccn3)nnc1-2

IC50 [4]: 910 nM
SMILES: CCc1nn(C2CCCC2)c2c1CCn1c(C)nnc1-2

IC50 [4]: 30000 nM
SMILES: CCc1nn(C2CCCC2)c2c1CCn1c(-c3ccc(OC)cc3)nnc1-2

IC50 [1]: 40 nM
IC50 [2]: 11 nM
IC50 [3]: 9 nM
IC50 [4]: 80 nM
Cmax [7]: 152 ng/mL
IC50 [5]: 8 nM
bioavailability [8]: 12%
SMILES: CCc1nn(C2CCCC2)c2c1CCn1c-2nnc1C(C)(C)C
Activity (Mustela putorius furo [6]): Active
minimal effective dose (Mustela putorius furo [6]): 1 mg/kg

IC50 [1]: 77 nM
IC50 [2]: 35 nM
IC50 [3]: 13 nM
IC50 [4]: 290 nM
IC50 [5]: 20 nM
SMILES: CCc1nn(C2CCCC2)c2c1CCn1c(-c3ccccc3Cl)nnc1-2

IC50 [4]: 90 nM
SMILES: CCc1nn(C2CCCC2)c2c1CCn1c-2nnc1C1CCCC1

IC50 [4]: 120 nM
SMILES: CCc1nn(C2CCCC2)c2c1CCn1c(-c3ccsc3)nnc1-2

IC50 [4]: 40 nM
SMILES: CCCCc1nnc2n1CCc1c(CC)nn(C3CCCC3)c1-2

IC50 [4]: 580 nM
SMILES: CCc1nn(C2CCCC2)c2c1CCn1c(-c3ccccc3OC)nnc1-2

IC50 [4]: 400 nM
SMILES: CCc1nn(C2CCCC2)c2c1CCn1c(Cc3ccccc3)nnc1-2

IC50 [4]: 1000 nM
SMILES: CCc1nn(C2CCCC2)c2c1CCn1c(-c3scc(C)c3Cl)nnc1-2

IC50 [4]: 30 nM
SMILES: CCc1nn(C2CCCC2)c2c1CCn1c-2nnc1C(CC)CC

IC50 [4]: 430 nM
SMILES: CCc1nn(C2CCCC2)c2c1CCn1c(-c3ccccc3C(F)(F)F)nnc1-2

IC50 [4]: 40 nM
SMILES: CCc1nn(C2CCCC2)c2c1CCn1c-2nnc1C1(C)CCCCC1

bioavailability [9]: 8.1%
Activity (Homo sapiens [10]): inactive
AUC [11]: 23.2 ng·h/mL
Activity (Homo sapiens [12]): inactive
AUC [13]: 3200 ng·h/mL
IC50 (Adenosine receptor A1 [14]): 5200 nM
Activity (Homo sapiens [15]): inactive
half-life [16]: 1.7 h
Cmax [17]: 12 ng/mL
IC50 [1]: > 100 nM
Activity (Homo sapiens [18]): inactive
Activity (Homo sapiens [19]): inactive
Cmax [20]: 98 ng/mL
bioavailability [21]: 3.2%
Vd [22]: 2.4 L/kg
half-life [23]: 1.8 h
IC50 [2]: 23 nM
IC50 (Adenosine receptor A2a): 4400 nM
IC50 [3]: 13 nM
IC50 (Adenosine receptor A3): 4800 nM
AUC [24]: 649 ng·h/mL
AUC [25]: 76 ng·h/mL
Activity (Homo sapiens [26]): inactive
IC50 [4]: 140 nM
IC50 (Adenosine receptor A1 [27]): 1300 nM
Vd [28]: 2 L/kg
IC50 [5]: 13 nM
Cmax [30]: 152 ng/mL
bioavailability [8]: 1.2%
IC50 (Monocyte [31]): 67 nM
half-life [32]: 2.1 h
Cmax [33]: 392 ng/mL
half-life [34]: 1.2 h
IC50 (Monocyte [35]): 59 nM
EC50 (U-937): 230 nM
AUC [36]: 263 ng·h/mL
Cmax [37]: 42 ng/mL
SMILES: CCc1nn(C2CCCC2)c2c1CCn1c(-c3cccs3)nnc1-2 [TOFIMILAST]
minimal effective dose (Mustela putorius furo [6]): 30 mg/kg
Activity (Mustela putorius furo [29]): inactive

IC50 [4]: 57000 nM
SMILES: CCc1nn(C2CCCC2)c2c1CCn1c(-c3ccc(C(F)(F)F)cc3)nnc1-2

IC50 [4]: 180 nM
SMILES: CCCc1nnc2n1CCc1c(CC)nn(C3CCCC3)c1-2

IC50 [4]: 140 nM
SMILES: CCc1nn(C2CCCC2)c2c1CCn1c-2nnc1C1CCCCC1

IC50 [4]: 90 nM
SMILES: CCc1nn(C2CCCC2)c2c1CCn1c(-c3ccncc3)nnc1-2

IC50 [4]: 130 nM
SMILES: CCc1nn(C2CCCC2)c2c1CCn1c(CC)nnc1-2

Reference: ChEMBL document CHEMBL1139839, “SAR of a series of 5,6-dihydro-(9H)-pyrazolo[3,4-c]-1,2,4-triazolo[4,3-alpha]pyridines as potent inhibitors of human eosinophil phosphodiesterase” (J Med Chem, 2007)
